The values that follow come from patent US10155807B2, “Treating alcohol-mediated disorders by inhibition of RGS6” (UNIVERSITY OF IOWA RESEARCH FOUNDATION, priority 2014, dated 2018).

For experiment [1], the system named is neonatal VCM isolated from WT and RGS6−/− mice. Conditions: 1 μM, 1.5 hour pre-treatment; 200 mM EtOH 24 hours; WT vs RGS6−/− VCM.
Procedure: Twenty-four hours after isolation and plating, cells were treated with 200 mM EtOH (24 hours) in the presence or absence of DPI (1 μM, 1.5 hour pre-treatment) where indicated. […] Intracellular ROS generation was estimated using the cell-permeable oxidation-sensitive probe, CM-H2DCFDA (Sigma) as described previously (Maity et al., J Biol Chem. 2011; 286(2):1409-19). Briefly, cells were harvested by centrifugation, washed three times with ice-cold PBS, re-suspended in PBS and incubated with 5 μM CM-H2DCFDA for 20 minutes at 37° C. After incubation cells were again washed and lysed in PBS with 1% Tween 20. ROS level was determined at the ratio of dichlorofluorescein excitation at 480 nm to emission at 530 nm.
Experiment [2] relates to RGS6−/− mice. Kind of experiment: Short-term free choice alcohol consumption with daily GABABR antagonist treatment. Conditions: 12.5 mg/kg i.p. daily; 8% EtOH free choice phase. The format is in vivo. The text has this:
RGS6 was identified as a critical negative regulator of cerebellum GABABR-regulated motor behavior (Maity et al., J Biol Chem. 2012; 287(7):4972-81). The involvement of GABABR signaling in the reduction in alcohol drinking observed in mice lacking RGS6 was investigated. […] Both the time course of GABABR-induced activation and deactivation of the mitogen activated protein kinase (MAPK) signaling cascade were pro-longed in the cortex of RGS6^−/− mice. […] To directly test the involvement of GABABR signaling in the reduction in alcohol seeking behavior seen in RGS6^−/− mice, the short-term free choice EtOH consumption paradigm was repeated with the addition of daily GABABR antagonist treatments.
Short-term alcohol consumption was measured in WT and RGS6^−/− mice essentially as previously described (Lockridge et al., Alcohol. 2012; 46(4):389-400). First, mice were individually housed for 2 days prior to the experiment. Each cage was then outfitted with two drinking bottles made from graduated serological pipettes sealed with parafilm to prevent evaporation and attached to each cage. […] Volume levels were recorded daily, tubes refilled and mice weighed. […] Alcohol (or saccharin/quinine) preference was calculated by dividing the EtOH volume consumed by the total fluid intake.

The target of experiment [3] is T1, RGS6:Gαo protein:protein interaction (ppi) (Homo sapiens, UniProt P49758).
T1 sequence (P49758 336-441 limits assumed): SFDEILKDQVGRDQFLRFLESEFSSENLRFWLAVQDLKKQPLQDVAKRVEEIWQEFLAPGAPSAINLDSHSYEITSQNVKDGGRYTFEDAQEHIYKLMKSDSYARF
Kind of experiment: Alpha Screen dose response, RGS6:Gαo protein:protein interaction. Type of experiment: binding. The conditions noted are these: for IC50: Alpha Screen dose response, truncated RGS6 construct, read-out: IC50 for inhibition of RGS6:Gαo ppi; for selectivity for inhibiting the RGS6:Gαo ppi over the assay (control): ppi vs assay counter-screen. The text has this: A high throughput screen based upon the protein-protein interaction between RGS6 and its cognate G protein has been developed. This is an approach used for other RGS proteins (Bodle et al. Future Med Chem 5: 995-1007, 2013; Mackie et al. J Biomol Screen 16: 869-877, 2011; Monroy et al. PloS one 8: e62247, 2013). Briefly, human RGS6 and G protein from E. coli is expressed and purified, which are then chemically modified to attach to microspheres. These microspheres (AlphaScreen) are then dispensed into high density experimental plates, with either 384 or 1536 wells per plate. Into each of these wells, an individual compound is dispensed, and through the use of a chemiluminescent reaction between the RGS6 and G protein coated beads, whether or not the two proteins are interacting is determined. […] A critical measure is the “Z-factor,” which indicates the ability to detect an inhibitor based on the screening signal strength, and the difference between positive and negative control values. A Z-factor between 0.5 and 1 is considered to be acceptable, and the Z-factor for the RGS6 assay is quite good, at 0.61. Using this method, a screen of 2320 compounds has been completed in 384-well plates. […] These compounds are being evaluated in testing for specificity and effectiveness in functional assays. Accessing the much larger 50,000 compound Chembridge library held by UI HTS will allow much larger coverage of “chemical space” to sample chemotypes that may represent RGS6 inhibitors with drug like properties.
As described herein, a role for RGS6 in the regulation of alcohol dependency traits, and that inhibition of this protein may act as a therapeutic intervention for the disease of alcohol addiction. As such, 2320 compounds were screened in an initial effort to discover small molecule inhibitors of the RGS6:Gαo protein:protein interaction (ppi). Alpha screen technology was used in this screen, where both proteins are conjugated to their respective donor or acceptor beads and if a ppi exists the proximity of the beads to each other results in emission of light at 520-620 nm. If a small molecule disrupts the ppi, then the intensity of light emitted is diminished.
IC50 values were obtained from dose response experiments using Alpha Screen technology. Compounds were determined to be promising based on these IC50 values, and based on the selectivity the compounds had for inhibiting the ppi versus inhibiting the assay. Since the Alpha Screen assay utilizes emitted light produced by singlet oxygen interacting with the acceptor bead as a determinant of ppi, highly colored compounds, or compounds that act as oxygen scavengers can produce false positive inhibition of the assay. […] This was not determined for UI1956.
The compounds identified in this screen represent the first generation of RGS6 inhibitors. A larger screening campaign will yield molecules that are both potent and selective for inhibiting RGS6 while containing minimal reactive substructures thus cutting down on the possible side effects that reactive molecules often produce. An additional screen will utilize the full RGS6 protein. This differs from the preliminary screen above in that a truncated RGS6 construct was used for ease of purification. […]

Experiment [4] concerns RGS6−/− mice. Kind of experiment: Activity measurement in home cage after baclofen (sedation). The conditions noted are these: 10 mg/kg i.p.; immobility time over 20 min. The format is in vivo. The protocol:
After drug treatment mice were placed back in their home cage and behavior videotaped for 20 min. Videos were scored for total immobility time (no discernable ambulation, grooming, social or other behaviors) by an observer blinded to mouse genotype. Data are presented as percent total time spent immobile.

As to `c1ccc2c(c1)[I+]c1ccccc1-2` [DPI, diphenyleneiodonium], the “alcohol-induced ROS generation in VCM” value in experiment [1] was “significantly reduced ROS generation in WT but not RGS6^−/− VCM”.
For the compound `CC1(C)CO[C@@H](CC(=O)O)CN1` [SCH-50911], in the experiment on RGS6−/− mice [2], the “effect on reduced EtOH consumption of RGS6−/− mice” value is recorded as “partially reversed the reduction in alcohol consumption”.
Consider `Oc1ccc2c(c1)OCC1(O)Cc3cc(O)c(O)cc3C21` (centres unmarked) [UI1910], for which, in experiment [3], the IC50 was determined as 17 µM and the “selectivity for inhibiting the RGS6:Gαo ppi over the assay (control)” value came to 30 fold.
For `O=C1C=C2C[C@@]3(O)COc4cc(O)ccc4C3=C2C=C1O` [UI1935], in experiment [3], the half-inhibitory concentration (IC50) worked out at 49 µM and the “selectivity for inhibiting the RGS6:Gαo ppi over the assay (control)” value turned out to be 5 fold.
With `O=c1c(-c2cc(O)c(O)c(O)c2)coc2cc(O)c(O)c(O)c12` [UI1956], the IC50 in experiment [3] is 42 µM.
Take `NCC(CC(=O)O)c1ccc(Cl)cc1` (centres unmarked) [baclofen]: the “sedative effect in RGS6−/− mice” value in the experiment with RGS6−/− mice [4] is recorded as “remarkably sensitized to the sedative effects”.
